Measurements published in PubChem BioAssay (NCI).
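Growth conditions: 96-well plates. Treatment: test compound, 48 hours, 5 concentrations. Analysis: linear interpolation between bracketing concentrations; unreached endpoints set to highest concentration. The concentration for 50% growth inhibition is given as GI50. Definition used: TGI = concentration required for complete inhibition of growth.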

Key:
Test in all cases: growth of human tumour cells (NCI), 48 h
[1] = tested on: SK-MEL-5 melanoma
[2] = tested on: M14 melanoma
[3] = tested on: HT29 colon
[4] = tested on: UACC-257 melanoma
[5] = tested on: SK-OV-3 ovarian
[6] = tested on: HCC-2998 colon
[7] = tested on: HCT-15 colon
[8] = tested on: MCF7 breast
[9] = tested on: K-562 leukemia
[10] = tested on: HOP-62 NSCLC
[11] = tested on: SW-620 colon
[12] = tested on: SK-MEL-28 melanoma
[13] = tested on: A498 renal
[14] = tested on: KM12 colon
[15] = tested on: 786-0 renal
[16] = tested on: NCI-H522 lung
[17] = tested on: EKVX NSCLC
[18] = tested on: OVCAR-4 ovarian
[19] = tested on: SK-MEL-2 melanoma
[20] = tested on: CCRF-CEM leukemia
[21] = tested on: RPMI-8226 leukemia
[22] = tested on: NCI-H460 lung
[23] = tested on: MDA-MB-231 breast
[24] = tested on: HL-60(TB) leukemia
[25] = tested on: HS 578T breast
[26] = tested on: NCI/ADR-RES ovarian
[27] = tested on: OVCAR-3 ovarian
[28] = tested on: RXF 393 renal
[29] = tested on: OVCAR-8 ovarian
[30] = tested on: A549 NSCLC
[31] = tested on: SNB-75 CNS
[32] = tested on: MOLT-4 leukemia
[33] = tested on: NCI-H23 lung
[34] = tested on: MALME-3M melanoma
[35] = tested on: ACHN renal
[36] = tested on: UO-31 renal
[37] = tested on: OVCAR-5 ovarian
[38] = tested on: SR leukemia
[39] = tested on: SF-295 CNS
[40] = tested on: SF-539 CNS
[41] = tested on: MDA-MB-435
[42] = tested on: BT-549 breast
[43] = tested on: T-47D breast
[44] = tested on: HCT-116 colon
[45] = tested on: SN12C renal
[46] = tested on: SF-268 CNS
[47] = tested on: COLO 205 colon
[48] = tested on: HOP-92 NSCLC
[49] = tested on: IGROV1 ovarian
[50] = tested on: U251 CNS
[51] = tested on: SNB-19 CNS
[52] = tested on: LOX IMVI melanoma
[53] = tested on: DU-145 prostate
[54] = tested on: NCI-H226 lung
[55] = tested on: PC-3 prostate
[56] = tested on: UACC-62 melanoma
[57] = tested on: CAKI-1 renal

COc1ccc(Nc2ncnc3ccc(-c4cncc(NS(C)(=O)=O)c4)cc23)cc1Cl
GI50 [1]: 1.61 µM | TGI [1]: 3.21 µM | GI50 [2]: 2.81 µM | TGI [2]: 13.6 µM | GI50 [3]: 2.07 µM | TGI [3]: 6.93 µM | GI50 [4]: 2.82 µM | TGI [4]: 14 µM | GI50 [5]: 2.49 µM | TGI [5]: 6.93 µM | GI50 [6]: 4.03 µM | TGI [6]: 15.4 µM | GI50 [7]: 3.6 µM | TGI [7]: 14.1 µM | GI50 [8]: 1.63 µM | TGI [8]: 8.01 µM | GI50 [9]: 3.2 µM | TGI [9]: 18.7 µM | GI50 [10]: 2.64 µM | TGI [10]: 22.6 µM | GI50 [11]: 3.23 µM | TGI [11]: 12.4 µM | GI50 [12]: 2.75 µM | TGI [12]: 18.4 µM | GI50 [13]: 1.8 µM | TGI [13]: 4.44 µM | GI50 [14]: 3.15 µM | TGI [14]: 11.7 µM | GI50 [15]: 2.99 µM | TGI [15]: 13 µM | GI50 [16]: 1.18 µM | TGI [16]: 4.08 µM | GI50 [17]: 1.99 µM | TGI [17]: 6.82 µM | GI50 [18]: 4.22 µM | TGI [18]: 83.1 µM | GI50 [19]: 1.02 µM | TGI [19]: 2.67 µM | GI50 [20]: 0.896 µM | TGI [20]: 10 µM | GI50 [21]: 2.11 µM | TGI [21]: 4.9 µM | GI50 [22]: 4.11 µM | TGI [22]: 17 µM | GI50 [23]: 2.71 µM | TGI [23]: 15.3 µM | GI50 [24]: 2.02 µM | TGI [24]: 6.72 µM | GI50 [25]: 1.26 µM | TGI [25]: 5.18 µM | GI50 [26]: 21.4 µM | TGI [26]: 81.5 µM | GI50 [27]: 1.66 µM | TGI [27]: 4.78 µM | GI50 [28]: 2.08 µM | TGI [28]: 5.63 µM | GI50 [29]: 3.62 µM | TGI [29]: 16.5 µM | GI50 [30]: 5.18 µM | TGI [30]: 22.9 µM | GI50 [31]: 0.352 µM | TGI [31]: 6.37 µM | GI50 [32]: 1.5 µM | TGI [32]: 4 µM | GI50 [33]: 2.66 µM | TGI [33]: 15 µM | GI50 [34]: 1.55 µM | TGI [34]: 11.2 µM | GI50 [35]: 4.92 µM | TGI [35]: > 100 µM | GI50 [36]: 3.04 µM | TGI [36]: 22.5 µM | GI50 [37]: 2.87 µM | TGI [37]: 29 µM | GI50 [38]: 1.42 µM | TGI [38]: 5.86 µM | GI50 [39]: 2.51 µM | TGI [39]: 10.1 µM | GI50 [40]: 1.84 µM | TGI [40]: 7.72 µM | GI50 [41]: 3.19 µM | TGI [41]: 15.3 µM | GI50 [42]: 1.67 µM | TGI [42]: 7.12 µM | GI50 [43]: 0.177 µM | TGI [43]: 1.61 µM | GI50 [44]: 2.05 µM | TGI [44]: 5.69 µM | GI50 [45]: 3.09 µM | TGI [45]: 18.7 µM | GI50 [46]: 2.3 µM | TGI [46]: 16.4 µM | GI50 [47]: 1.8 µM | TGI [47]: 4.47 µM | GI50 [48]: 0.348 µM | TGI [48]: 4.62 µM | GI50 [49]: 1.4 µM | TGI [49]: 4.46 µM | GI50 [50]: 2.81 µM | TGI [50]: 13.6 µM | GI50 [51]: 2.81 µM | TGI [51]: 24.4 µM | GI50 [52]: 1.5 µM | TGI [52]: 4.28 µM | GI50 [53]: 3.78 µM | TGI [53]: 15.2 µM | GI50 [54]: 2.69 µM | TGI [54]: 18.1 µM | GI50 [55]: 2.83 µM | TGI [55]: 16.6 µM | GI50 [56]: 2.14 µM | TGI [56]: 8.31 µM

O=C(O)COc1ccc(OCC(=O)O)cc1
GI50 [1]: 0.362 µM | TGI [1]: 2.31 µM | GI50 [2]: 0.847 µM | TGI [2]: 12.3 µM | GI50 [3]: 0.709 µM | TGI [3]: 11.6 µM | GI50 [4]: 2.53 µM | TGI [4]: 18.5 µM | GI50 [5]: 0.644 µM | TGI [5]: 19.8 µM | GI50 [6]: 1.5 µM | TGI [6]: 6.82 µM | GI50 [7]: 9.43 µM | TGI [7]: > 100 µM | GI50 [8]: 0.0567 µM | TGI [8]: 10.7 µM | GI50 [9]: 2.49 µM | TGI [9]: 16.6 µM | GI50 [10]: 0.408 µM | TGI [10]: 8.53 µM | GI50 [11]: 0.312 µM | TGI [11]: 12.8 µM | GI50 [12]: 3.36 µM | TGI [12]: 17 µM | GI50 [13]: 1.06 µM | TGI [13]: 4.87 µM | GI50 [14]: 1.71 µM | TGI [14]: 10.7 µM | GI50 [15]: 0.456 µM | TGI [15]: 3.62 µM | GI50 [16]: 0.302 µM | TGI [16]: 3.22 µM | GI50 [17]: 6.43 µM | TGI [17]: 74.4 µM | GI50 [18]: 2.96 µM | TGI [18]: 20.3 µM | GI50 [19]: 3.28 µM | TGI [19]: 15.9 µM | GI50 [20]: 0.2 µM | TGI [20]: 21 µM | GI50 [57]: 22.2 µM | TGI [57]: > 100 µM | GI50 [21]: 0.343 µM | TGI [21]: 6.76 µM | GI50 [22]: 0.0609 µM | TGI [22]: 1.51 µM | GI50 [23]: 3.06 µM | TGI [23]: 16.2 µM | GI50 [24]: 0.159 µM | TGI [24]: 0.873 µM | GI50 [25]: 1.97 µM | TGI [25]: 13.6 µM | GI50 [26]: 56.6 µM | TGI [26]: > 100 µM | GI50 [27]: 2.5 µM | TGI [27]: 36.3 µM | GI50 [28]: 0.97 µM | TGI [28]: 4.64 µM | GI50 [29]: 0.911 µM | TGI [29]: 10.8 µM | GI50 [30]: 0.432 µM | TGI [30]: 2.16 µM | GI50 [31]: 0.684 µM | TGI [31]: 10.1 µM | GI50 [32]: 0.0557 µM | TGI [32]: 23.5 µM | GI50 [33]: 0.513 µM | TGI [33]: 3.09 µM | GI50 [34]: 0.571 µM | TGI [34]: 10.5 µM | GI50 [35]: 0.522 µM | TGI [35]: 4.02 µM | GI50 [36]: 5.4 µM | TGI [36]: 27.5 µM | GI50 [37]: 1.43 µM | TGI [37]: 24.8 µM | GI50 [38]: 0.0614 µM | TGI [38]: 12.7 µM | GI50 [39]: 0.445 µM | TGI [39]: 11.3 µM | GI50 [40]: 0.365 µM | TGI [40]: 5.06 µM | GI50 [41]: 3.36 µM | TGI [41]: 16.4 µM | GI50 [42]: 1.47 µM | TGI [42]: 11.6 µM | GI50 [43]: 0.449 µM | TGI [43]: 9.31 µM | GI50 [44]: 0.612 µM | TGI [44]: 10.3 µM | GI50 [45]: 0.275 µM | TGI [45]: 18 µM | GI50 [46]: 0.584 µM | TGI [46]: 13.5 µM | GI50 [47]: 1.05 µM | TGI [47]: 13.4 µM | GI50 [48]: 0.319 µM | TGI [48]: 7.59 µM | GI50 [49]: 1.8 µM | TGI [49]: 33 µM | GI50 [50]: 0.251 µM | TGI [50]: 2.47 µM | GI50 [51]: 0.273 µM | TGI [51]: 11.3 µM | GI50 [52]: 0.276 µM | TGI [52]: 2.34 µM | GI50 [53]: 0.325 µM | TGI [53]: 12.7 µM | GI50 [54]: 0.19 µM | TGI [54]: 0.789 µM | GI50 [55]: 2.03 µM | TGI [55]: 17.2 µM | GI50 [56]: 0.326 µM | TGI [56]: 2.9 µM
